Measured values published in patent publication US7973056B2, “Triazole derivative or salt thereof” (Fujifilm Finechemicals Co., Ltd, priority 2008, dated 2011).

System: Candida albicans TIMM 1623
Assay: Antifungal activity test (in vivo), mouse systemic infection model
Parameters: survival rate: unit not given here
Conditions: for T/C (%): survival time of administration group / control group x100
Method: With respect to compounds I-1, I-3 and I-6 obtained in Examples 1, 3 and 6 respectively, therapeutic effects at the time of subcutaneous administration of compounds I-1, I-3 and I-6 on a mouse systemic infection model by Candida albicans TIMM 1623 were tested.
The test was carried out using 5 animals for each of the drug administration groups and Negative control group (sterile physiological saline administration group).
Each of compounds I-1, I-3 and I-6 was dissolved in and diluted with dimethyl sulfoxide (DMSO; Wako Pure Chemical Industries, Ltd.) and then prepared into a predetermined concentration by diluting with sterile physiological saline.
As the control experiment, Fluconazole (FLCZ, Flanos intravenous drip solution 100 mg; TOYAMA CHEMICAL CO, LTD.) diluted to a predetermined concentration with sterile physiological saline was used.
On the next day of the receipt of animals, body weights of mice were measured and CP (crude protein) was intraperitoneally administered at a dose of 200 mg/kg based on the individual body weight, and then they were reared for 3 days.
Cells of C. albicans TIMM 1623 cultured overnight at 35° C. on SDA (Sabouraud dextrose agar; Eiken Chemical Co., Ltd.) plate medium were suspended in sterile physiological saline and used as the Stock solution, and a portion thereof was diluted with 10% formalin (Wako Pure Chemical Industries, Ltd.). The number of cells in the diluted liquid was counted under a biological microscope using a hemocytometer, and then an inoculum was prepared by diluting the stock solution with sterile physiological saline (about 1.5×10^5 cells/ml). By inoculating 0.2 ml of this cell suspension through caudal vein, infection was induced. In this connection, the number of viable cells in the inoculum was verified by spreading the cell suspension optionally diluted with sterile physiological saline on an SDA plate medium and then culturing at 35° C. Each of the substances to be tested, control substance or sterile physiological saline was subcutaneously administered after 2 hours of the infection and for 3 days starting on the next day of infection once a day, a total of 4 times. After measuring individual body weight on the next day of infection, CP was again administered intraperitoneally at a dose of 100 mg/kg. The number of survived mice was observed and recorded for 14 days starting on the next day of infection.
The results were shown in Table 3 below and FIGS. 1A to 1D. In the table, the administration dose of the compounds of the present invention and the comparative compound represents a mg amount per 1 kg of a mouse weight (mg/kg).
Significant deference was tested, by 5% for both sides of the levels of significance, in accordance with the Kaplan-Meier method Logrank test (comparison of multiple groups), on the survival time distribution of each of the substances to be tested and control substance administration groups and sterile physiological saline administration group. SAS release 8.2 (SAS Institute Japan) was used in the Kaplan-Meier method Logrank test. (T/C(%)=[survival time of administration group (integrated value)/survival time of control group (integrated value)]×100)

Structure (SMILES): C[C@@H](N1CCC(c2ccccn2)CC1)[C@](O)(Cn1cncn1)c1ccc(F)cc1F [I-1, (2R,3R)-2-(2,4-difluorophenyl)-3-(4-pyridin-2-ylpiperidin-1-yl)-1-(1,2,4-triazol-1-yl)butan-2-ol]
- survival rate (0.1 mg/kg s.c., day 0): 100
- survival rate (0.1 mg/kg s.c., day 1): 100
- survival rate (0.1 mg/kg s.c., day 2): 100
- survival rate (0.1 mg/kg s.c., day 3): 60
- survival rate (0.1 mg/kg s.c., day 4): 60
- survival rate (0.1 mg/kg s.c., day 5): 60
- survival rate (0.1 mg/kg s.c., day 6): 60
- survival rate (0.1 mg/kg s.c., day 7): 20
- survival rate (0.1 mg/kg s.c., day 8): 20
- survival rate (0.1 mg/kg s.c., day 9): 20
- survival rate (0.1 mg/kg s.c., day 10): 20
- survival rate (0.1 mg/kg s.c., day 11): 20
- survival rate (0.1 mg/kg s.c., day 12): 0
- T/C (%) (0.1 mg/kg s.c.): 103%
- survival rate (1 mg/kg s.c., day 0): 100
- survival rate (1 mg/kg s.c., day 1): 100
- survival rate (1 mg/kg s.c., day 2): 100
- survival rate (1 mg/kg s.c., day 3): 100
- survival rate (1 mg/kg s.c., day 4): 100
- survival rate (1 mg/kg s.c., day 5): 80
- survival rate (1 mg/kg s.c., day 6): 80
- survival rate (1 mg/kg s.c., day 7): 60
- survival rate (1 mg/kg s.c., day 8): 60
- survival rate (1 mg/kg s.c., day 9): 60
- survival rate (1 mg/kg s.c., day 10): 40
- survival rate (1 mg/kg s.c., day 11): 40
- survival rate (1 mg/kg s.c., day 12): 40
- survival rate (1 mg/kg s.c., day 13): 20
- survival rate (1 mg/kg s.c., day 14): 20
- T/C (%) (1 mg/kg s.c.): 161%
- survival rate (10 mg/kg s.c., day 0): 100
- survival rate (10 mg/kg s.c., day 1): 100
- survival rate (10 mg/kg s.c., day 2): 100
- survival rate (10 mg/kg s.c., day 3): 60
- survival rate (10 mg/kg s.c., day 4): 60
- survival rate (10 mg/kg s.c., day 5): 60
- survival rate (10 mg/kg s.c., day 6): 60
- survival rate (10 mg/kg s.c., day 7): 40
- survival rate (10 mg/kg s.c., day 8): 40
- survival rate (10 mg/kg s.c., day 9): 40
- survival rate (10 mg/kg s.c., day 10): 40
- survival rate (10 mg/kg s.c., day 11): 40
- survival rate (10 mg/kg s.c., day 12): 40
- survival rate (10 mg/kg s.c., day 13): 20
- survival rate (10 mg/kg s.c., day 14): 20
- T/C (%) (10 mg/kg s.c.): 132%

Structure (SMILES): C[C@@H](N1CC=C(c2ccc(Cl)cn2)CC1)[C@](O)(Cn1cncn1)c1ccc(F)cc1F [I-6, (2R,3R)-3-(5-chloro-3′,6′-dihydro-2,4′-bipyridin-1′(2′H)-yl)-2-(2,4-difluorophenyl)-1-(1,2,4-triazol-1-yl)butan-2-ol]
- survival rate (0.1 mg/kg s.c., day 0): 100
- survival rate (0.1 mg/kg s.c., day 1): 100
- survival rate (0.1 mg/kg s.c., day 2): 100
- survival rate (0.1 mg/kg s.c., day 3): 100
- survival rate (0.1 mg/kg s.c., day 4): 100
- survival rate (0.1 mg/kg s.c., day 5): 100
- survival rate (0.1 mg/kg s.c., day 6): 100
- survival rate (0.1 mg/kg s.c., day 7): 80
- survival rate (0.1 mg/kg s.c., day 8): 60
- survival rate (0.1 mg/kg s.c., day 9): 60
- survival rate (0.1 mg/kg s.c., day 10): 60
- survival rate (0.1 mg/kg s.c., day 11): 60
- survival rate (0.1 mg/kg s.c., day 12): 60
- survival rate (0.1 mg/kg s.c., day 13): 60
- survival rate (0.1 mg/kg s.c., day 14): 60
- T/C (%) (0.1 mg/kg s.c.): 194%
- survival rate (1 mg/kg s.c., day 0): 100
- survival rate (1 mg/kg s.c., day 1): 100
- survival rate (1 mg/kg s.c., day 2): 100
- survival rate (1 mg/kg s.c., day 3): 100
- survival rate (1 mg/kg s.c., day 4): 100
- survival rate (1 mg/kg s.c., day 5): 100
- survival rate (1 mg/kg s.c., day 6): 100
- survival rate (1 mg/kg s.c., day 7): 100
- survival rate (1 mg/kg s.c., day 8): 100
- survival rate (1 mg/kg s.c., day 9): 100
- survival rate (1 mg/kg s.c., day 10): 100
- survival rate (1 mg/kg s.c., day 11): 100
- survival rate (1 mg/kg s.c., day 12): 100
- survival rate (1 mg/kg s.c., day 13): 100
- survival rate (1 mg/kg s.c., day 14): 100
- T/C (%) (1 mg/kg s.c.): 242%
- survival rate (10 mg/kg s.c., day 0): 100
- survival rate (10 mg/kg s.c., day 1): 100
- survival rate (10 mg/kg s.c., day 2): 100
- survival rate (10 mg/kg s.c., day 3): 100
- survival rate (10 mg/kg s.c., day 4): 100
- survival rate (10 mg/kg s.c., day 5): 100
- survival rate (10 mg/kg s.c., day 6): 100
- survival rate (10 mg/kg s.c., day 7): 100
- survival rate (10 mg/kg s.c., day 8): 100
- survival rate (10 mg/kg s.c., day 9): 100
- survival rate (10 mg/kg s.c., day 10): 100
- survival rate (10 mg/kg s.c., day 11): 100
- survival rate (10 mg/kg s.c., day 12): 100
- survival rate (10 mg/kg s.c., day 13): 100
- survival rate (10 mg/kg s.c., day 14): 100
- T/C (%) (10 mg/kg s.c.): 242%
